The record followed here is PubChem BioAssay AID1794807 (Yongcheng Song lab at Baylor College of Medicine, 2022).

Activity calls are given as the source filed them.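 The calls were made as follows: active = half-maximal effective concentration EC50 under 50 µM in the live-cell XTT test; inactive = the rest.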

By EC50 is commonly meant the concentration giving half of the maximal effect.

The test concerns MV4;11 AML cells, XTT viability. The experiment in a line: MV4,11 leukemia cell growth inhibition, dose response, XTT absorbance (AID 1794807).
On to `O=C(NCC1CCNCC1)c1cc2ccc(-c3ccc(N4CCCC4)cc3)cc2s1`, for which the concentration giving a half-maximal response (EC50) is 8.7 µM. As to `O=C(NCC1CCNCC1)c1cc2cc(-c3cn[nH]c3)ccc2[nH]1`, the EC50 was > 50 µM (inactive). As for `O=C(NCC1CCNCC1)c1cc2ccc(-c3ccc(N4CCCCC4)cc3)cc2s1`, the EC50 was 9.6 µM.

For the compound `O=C(NCC1CCNCC1)c1coc2cc(-c3ccc(N4CCCCC4)cc3)ccc12`, the concentration for a half-maximal effect (EC50) was 21 µM. On to `O=C(NCC1CCNCC1)c1c[nH]c2cc(-c3ccc(N4CCCC4)cc3)ccc12`, for which the EC50 was 26 µM. With `NCc1ccc(-c2ccc3cc(C(=O)NCC4CCNCC4)oc3c2)cc1`, the EC50 was 50 µM (inactive). `O=C(NCC1CCNCC1)c1c[nH]c2cc(-c3ccc(N4CCCCC4)cc3)ccc12`: the EC50 is 33 µM. For `O=C(NCC1CCNCC1)c1cc2cc(-c3ccc(N4CCCCC4)cc3)ccc2[nH]1`, the concentration giving a half-maximal response (EC50) is 22 µM. `O=C(NCC1CCNCC1)c1cc2cc(-c3ccc(N4CCCCC4)cc3)ccc2s1`: the EC50 is 8.2 µM. In the case of `NC(=O)c1ccc(-c2ccc3cc(C(=O)NCC4CCNCC4)sc3c2)cc1`, the EC50 is > 50 µM (inactive).
